What was measured:
CD4+ T cells [1] = assay: Vaccination with peptide (redox motif + epitope) adsorbed on aluminum hydroxide, SC: induction of cytolytic CD4+ T cells; format: in vivo, human
From the text: A vaccination strategy making use of a mixture of two peptides encompassing the minimal binding sequence of class II-restricted epitopes and a thioreductase motif is therefore established.
Administration of a mixture of these two peptides adsorbed on aluminum hydroxide elicits specific CD4+ T cells with cytolytic properties.
Patients in need for EPO injection are vaccinated by administration of peptide [SEQ ID NO:18] using a standard procedure of peptide adsorbed on aluminum hydroxide and administered by SC injection.
Patients affected by Fabry disease are immunized with peptide of SEQ ID NO:21, using a standard procedure of peptide adsorbed on aluminium hydroxide and administered by SC injection.
The mammalian expression vector pCMV with cytomegalovirus promotor is engineered to allow the expression in CHO (Chinese hamster ovary) cells of any protein for replacement therapy, in fusion with the promiscuous CLIP-derived epitope described in example 2 [SEQ ID NO:17]. Patients in need for injection with a protein for replacement therapy are first vaccinated by administration of a peptide comprising a thioreductase motif and the modified CLIP-derived epitope described in example 2 [SEQ ID NO:18].

CD4+ T cells [2] = details: peptide adsorbed on aluminum hydroxide, SC injection; known from WO200817517; cited from earlier work
cytolytic CD4+ T cells = assay: Administration of epitope-tagged therapeutic protein to a previously vaccinated / cell-treated individual: activation of cytolytic CD4+ T cells and immune response to the protein; format: in vivo, human; details: individual pretreated with the matching redox-motif peptide or with autologous cells activated by it
From the text: Recombinant alpha-galactosidase can be modified as to contain the sequence of a class II-restricted promiscuous T cell epitope added at the amino-terminal end of the molecule.
The promiscuous nature of the CLIP-modified epitope makes it possible to use the same vaccine and the same EPO molecule for any patient in need of such therapy, regardless of its HLA profile.

CPYC-LF-LKSDGRVKYTLN (CPYCLFLKSDGRVKYTLN; CxxC + redox motif apolipoprotein B-100 epitope) [SEQ ID NO:21]
elicitation of specific CD4+ T cells with cytolytic properties (CD4+ T cells [1]): Epitope-specific cytolytic CD4+ T cells are then produced

CPYC-VR-FFMATRLLMQAL (CPYCVRFFMATRLLMQAL; CxxC redox motif + modified clip peptide) [SEQ ID NO:18]
elicitation of epitope-specific cytolytic CD4+ T cells (CD4+ T cells [2]): elicit epitope-specific cytolytic CD4+ T cells

B1: modified alpha-galactosidase: recombinant alpha-galactosidase modified to contain the LFLKSDGRVKYTLN promiscuous epitope (protein)
chain: LFLKSDGRVKYTLNDNGLARTPTMGWLHWERFMCNLDCQEEPDSCISEKLFMEMAELMVSEGWKDAGYEYLCIDDCWMAPQRDSEGRLQADPQRFPHGIRQLANYVHSKGLKLGIYADVGNKTCAGFPGSFGYYDIDAQTFADWGVDLLKFDGCYCDSLENLADGYKHMSLALNRTGRSIVYSCEWPLYMWPFQKPNYTEIRQYCNHWRNFADIDDSWKSIKSILDWTSFNQERIVDVAGPGGWNDPDMLVIGNFGLSWNQQVTQMALWAIMAAPLFMSNDLRHISPQAKALLQDKDVIAINQDPLGKQGYQLRQGDNFEVWERPLSGLAWAVAMINRQEIGGPRSYTIAVASLGKGVACNPACFITQLLPVKRKLGFYEWTSRLRSHINPTGTVLLQLENTMQMSLKDLL
modifications: apolipoprotein B-100 epitope + alpha galactosidase
immune response towards the therapeutic protein (cytolytic CD4+ T cells): does not elicit an immune response to alpha-galactosidase

— patent US11787849B2, “Methods and compounds for eliminating immune responses to therapeutic agents” (IMCYSE SA, priority 2015, dated 2023)
